Assay results reported in patent US20250382631A1, “PROTAC-CID SYSTEMS FOR USE IN MULTIPLEX GENE REGULATION” (William Marsh Rice University, priority 2022, published 2025).

How the values were obtained:
Format in all cases: cell-based, human
[1] = test system: three different genomic sites in HEK293T cells; test: Inducible C-to-T base editing by A3G5.13 (Sanger sequencing, EditR); settings: CBE A3G5.13 with dTAG-13 PROTAC-CID, 100 nM dTAG-13, 3 days, across three genomic sites, FIG. 3C
Method: Base editing measurement. Before transfection, HEK293T cells were plated into 96 well plates (Corning no. 3598) with 20% confluency. 0.5 μL Lipofectamine 2000 (Life Technology no. 11661089) was mixed with 25 μL DMEM for 5 mins incubation. 80 ng to 210 ng Plasmids (See Table 1 for plasmid dosage used in each condition) were then mixed with 25 μL DMEM and added into the Lipofectamine 2000 and DMEM mixture for 20 min incubation at the room temperature. Mixture was added into cells gently. After 12 h, supernatants were changed with fresh 10% FBS (Thermo Fisher Scientific no. 10437028) DMEM medium (Thermo Fisher Scientific no. 10569044), Puromycin (10 μg/mL Thermo Fisher Scientific no. A1113803) and supplied with 100 nM dTAG-13 (TOCRIS no. 6605/5) or DMSO (Sigma, no. D8418). After 3 days, cell medium was removed and cells were treated with 100 μL lysis buffer (10 mM tris-HCl (pH=7.5), 0.05% SDS, and proteinase K (25 μg/mL, Thermo Fisher Scientific no. 01169965)) followed by 37° C. 1 h, 58° C. 30 min and inactivated at 95° C. for 20 min. The cell lysis was amplified by 2×Phanta Max Master Mix (Vazyme no. p515) following the program: 95° C. 3 min, 95° C. 15s and 58° C. 15s with 72° C. for 35 cycles, and 72° C. 5 min. The editing efficiency was measured by Sanger sequencing and analyzed by EditR (https://moriaritylab.shinyapps.io/editr_v10/) (Kluesner et al., 2018).

[2] = test system: endogenous BRD4 (BRD4S, BRD4L); test: Immunoblot of endogenous BRD4 in HEK293T cells; settings: MZ1 20 nM and 100 nM, 48 h, HEK293T with MZ1 PROTAC-CID, FIG. 22
Excerpt: Immunoblots and RT-qPCR. Mice liver tissues or culture cells were lysed in RIPA buffer (Abcam no. ab156034) supplemented with phosphatase inhibitor (Thermo Fisher Scientific no. PIA32957) and protease inhibitors (Fishers cientific no. A32965). Lysates were resolved by 10% Tris-glycine SDS-PAGE, transferred to PVDF membrane (Bio-Rad no. 1620177), and blotted with antibodies BRD4 (Abcam, ab128874), GAPDH (Cell Signaling Technology, 2118L), luciferase (ABclonal, requested), Ran (ABclonal, A0976), Hsp90 (Cell Signaling Technology, 4874). Images were acquired using LumiQuant AC600 (Acuronbio Technology Inc), quantification analysis was processed by ImageJ software. Trizol reagent (Sigma no. T9424) was used to extract total RNA from liver. RNAs were purified using RNeasy Mini kit (QIAGEN no. 4106). The quality and concentration of total RNA were checked on NanoDrop™ 2000/2000c Spectrophotometers (Thermo Fisher Scientific no. ND2000LAPTOP). Reverse transcription of total RNA was performed using a Applied Biosystems™ High-Capacity cDNA Reverse Transcription Kit (Thermo Fisher Scientific no. 4368813) and qPCR was conducted with SYBR Green Master Mix (Abclonal no. RK21203) on QuantStudio 6 Real-time PCR system (Thermo Fisher Scientific).

[3] = test system: pUAS-2-driven Fluc in HEK293T cells co-infected with Virus a and Virus b; test: AAV infection of HEK293T cells, luciferase bioluminescence; settings: 100 nM MZ1, three days post-infection, FIG. 4B
Method: AAV infection on HEK293T cells. Before infection, HEK293T cells were seeded into 96 well plates (Corning no. 3610). When the confluency reaching 50%, 1 μL of each purified AAV virus (Virus a and Virus b in FIGS. 4 and 19) were added into the supernatant of HEK293T cells. 100 nM of MZ1 or DMSO was added into the supernatant. Three days post-infection, cells with 80 μL medium were treated with 40 μL lysis buffer (500 mM DTT, 10 mM coenzyme A, 100 mM ATP, 80 mg/mL D-luciferin, Triton lysis buffer (0.1082 M Tris-HCl, 0.0419 M Tris-Base, 75 mM NaCl, 3 mM MgCl2)). To lysis the cells Plate was shaken by plate reader Infinite M200 (TECAN) with 20 seconds in “Orbital” mode with frequency of 432 rpm and Amplitude of 1 mm. Relative light units of luminescence was recorded by plate reader Infinite M200 (TECAN) with 1000 ms integration time using Megellan v1.7 (TECAN).

Compound | C-to-T editing [1] | degradation of endogenous BRD4 isoforms [2] | increase in luciferase bioluminescence intensity [3]
CC[C@H](C(=O)N1CCCC[C@H]1C(=O)O[C@H](CCc1ccc(OC)c(OC)c1)c1ccccc1OCC(=O)NCCCCCCOc1cccc2c1C(=O)N(C1CCC(=O)NC1=O)C2=O)c1cc(OC)c(OC)c(OC)c1 (stereo partly drawn) [dTAG-13] | 30-50% | – | –
Cc1ncsc1-c1ccc(CNC(=O)[C@@H]2C[C@@H](O)CN2C(=O)[C@@H](NC(=O)COCCOCCOCCNC(=O)C[C@@H]2N=C(c3ccc(Cl)cc3)c3c(sc(C)c3C)-n3c(C)nnc32)C(C)(C)C)cc1 [MZ1] | – | only observed the degradation of the short isoform of BRD4 (BRD4S), not the conventional long isoform BRD4 (BRD4L) | more than 60 fold
